Measured values published in patent US10730022B2, “Process for the separation of organic compounds” (VITO NV, priority 2015, dated 2020).
Values joined by “and” are separate entries in the source; they are usually repeats but may differ in a detail not shown here. Equal values may be shown once.

Experiments:
[1] = membrane contactor extraction of MPPA/IPA mixture from pH 10 feed into pH 3 sodium acetate collection solution (Example 2); format: physicochemical; conditions: pH 3 collection, 30° C., 20 l/h, 300 to 500 mbar
Protocol: A mixture of isopropyl amine (IPA) and 1-methyl-3-phenylpropylamine (MPPA) in a pH 10 aqueous buffer (feed solution) was applied to a first compartment of a membrane contactor module, with the second compartment comprising a sodium acetate buffer (pH 3) (collection solution). The membrane separation was performed at a flow rate of 20 l/h, temperature of 30° C. and transmembrane pressure of 300 to 500 mbar. Feed and collection solutions were continuously recycled in the membrane contactor module. The membrane used was a phenyl phosphonic acid functionalized ceramic membrane (as in Example 1), wherein both the external surface as the internal surface of the pores was linked to the organic moiety. The amine concentration in the extracting sodium acetate solution was followed up over time (FIG. 5).

[2] = % uncharged amine at pH 10, calculated using Henderson-Hasselbalch equation; format: physicochemical; conditions: for % uncharged at pH 10: calculated using Henderson-Hasselbalch equation; for uncharged/charged ratio of the amine at the pH of the feed solution: pH 10 feed
Protocol: Assuming that only the uncharged amine can pass through the membrane, the (theoretical) extractable amount can be calculated using the % uncharged amine at pH 10 (Table 1). For MPPA (596 mg in feed solution) and MBA (484 mg in the feed solution) this corresponds to 113 mg and 358 mg theoretical extractable amine, respectively. After 7 h, 15% of this amount was extracted for MPPA, while only 3% of this amount was extracted for MBA.

[3] = cited from earlier work
[4] = octanol/water; cited from earlier work
[5] = membrane contactor extraction of transamination reaction mixture in organic solvent into pH 3 sodium acetate buffer (Example 3); format: physicochemical; conditions: organic solvent feed, pH 3 sodium acetate extracting solution
Protocol: An enzymatically catalysed transamination reaction is performed in an organic solvent, using benzyl acetone (BA) and isopropyl amine (IPA) as respectively substrate ketone and substrate amine. […] The resulting products are acetone (as co-product ketone) and (S-)1-methyl-3-phenylpropylamine (S-MPPA—a chiral amine). This reaction is prone to product inhibition by MPPA.
The reaction mixture is passed through a membrane contactor module, using an acidic sodium acetate buffer (pH 3) as extracting solution.

[6] = cited from earlier work; remark: listed apart in the source
[7] = membrane contactor extraction of MPPA/MBA mixture from pH 10 feed into pH 3 sodium acetate collection solution (Example 1); format: physicochemical; conditions: for time of membrane extraction after which amine was detected in the acidic extracting solution: MPPA/MBA mixture, pH 10 feed, pH 3 collection, 30° C., 20 l/h, 300-500 mbar; for % of theoretical extractable amount extracted: after 7 h; for theoretical extractable amine: from % uncharged at pH 10, 596 mg MPPA and 484 mg MBA in feed
Protocol: A mixture of MPPA and MBA in a pH 10 aqueous buffer (feed solution) was applied to a first compartment of a membrane contactor module, with the second compartment comprising a sodium acetate buffer (pH 3) (collection solution). The membrane separation was performed at a flow rate of 20 l/h, a temperature of 30° C. and a transmembrane pressure of 300-500 mbar. Feed and collection solutions were continuously recycled in the membrane contactor module. The membrane used was a phenyl phosphonic acid functionalized ceramic membrane, wherein both the external surface as the internal surface of the pores was linked to the organic moiety. […] The amine concentration in the extracting sodium acetate solution was followed up over time (FIG. 4).

Compound	time of membrane extraction after which amine was detected in the acidic extracting solution [1]	% uncharged at pH 10 [2]	pKa [3]	LogP [4]	membrane passage behaviour [5]	solubility in aqueous liquids [6]	uncharged/charged ratio of the amine at the pH of the feed solution [2]	time of membrane extraction after which amine was detected in the acidic extracting solution [7]	% of theoretical extractable amount extracted [7]	theoretical extractable amine [7]
CC(C)N [IPA, isopropyl amine]	about 7 h	16%	10.73	0.391	mainly remains in the feed solution					
CC(=O)CCc1ccccc1 [BA, benzyl acetone]						10 mM and 1.48 g/1				
CNCc1ccccc1 [MBA, methylbenzylamine]		74%	9.54	1.7			≈ 3	3.5 h	3%	358 mg
CC(N)CCc1ccccc1 (stereo not shown) [MPPA, 1-methyl-3-phenylpropylamine]	less than 1 h	19%	10.63	2.264	efficiently passes the membrane		≈ 0.25	less than 1 h	15%	113 mg
